Data: patent US9458102B2 (priority 2011, dated 2016)
Like-named read-outs stand apart in the source and are kept apart here.

Tests used:
[1] = biological target: heteromeric rod CNG channels consisting of CNGA1 and CNGB1 subunits (Bos taurus, UniProt Q00194+Q28181); experiment: biochemical; assay type: cell-based; conditions: 2 mM cGMP; for voltage dependence of block: +50 vs −50 mV
Description: Currents were elicited by a voltage step protocol from 0 to −50 to +50 mV (See FIG. 1) in the presence of 2 mM cGMP or 2 mM cGMP and compound (5 μM). Time scale is shown in the lower left-hand corner of the panel and FIG. 1, and the zero current level is indicated by the dotted line.
The solid line indicates the fit of the equation for block at a single binding site.
Time scale is shown in the lower left-hand corner of the panel and FIG. 1, and the zero current level is indicated by the dotted line. […] Solid line indicates the fit of the equation for block at a single binding site.
The effectiveness of retinal rod CNG channel current block by the disclosed compounds was tested in Xenopus oocyte preparations. Excised, inside-out patches pulled from oocytes expressed heteromeric rod CNG channels consisting of CNGA1 and CNGB1 subunits. […] CNG channel currents were elicited by a voltage step protocol to −50 and +50 mV (FIG. 1). The apparent KD value at each membrane potential was estimated first by determining I+B and I−B at steady state, where I+B is the current in the presence of blocker and I−B is current in the absence of blocker, for different blocker concentrations ([B]).
Ovaries were surgically removed from adult Xenopus laevis females (Xenopus Express; Brooksville, Fla.) anesthetized with ice-cold 0.1% tricaine and 0.1% NaHCO3 solution. Oocytes were chemically released from ovarian follicles in Ca^2+-free Barth's solution (88 mM NaCl, 1 mM KCl, 2.4 mM NaHCO3, 0.82 mM MgSO4, 7.5 mM Tris, 2.5 mM sodium pyruvate, 100 U/mL penicillin, and 100 μg/mL streptomycin, pH 7.4) containing 0.1 U/mL Liberase Blendzymes (Roche, Indianapolis, Ind.). Stages IV and V oocytes were visually sorted and stored in ND-96 (96 mM NaCl, 2 mM KCl, 1.8 mM CaCl2, 1 mM MgCl2, 5 mM HEPES, 2.5 mM sodium pyruvate, 100 U/mL penicillin, and 100 μg/mL streptomycin, pH 7.4) at 16° C. Oocytes were co-injected the following day with 33 ng of CNGA1 and 67 ng of CNGB1 cRNA […] synthesized from linearized pGEM-HE expression vectors containing the channel subunit cDNA sequence (Strassmaier T & Karpen J, J Med Chem 50, 4186-4194, (2007), incorporated by reference herein) using T7 mMESSAGE mMACHINE® (Ambion, Austin, Tex.). Injected oocytes were incubated at 18° C. the first day and 16° C. for the remaining days.
Recordings from inside-out excised patches were made 3-7 days after oocyte injection on an Axopatch 1D® amplifier (Axon Instruments, Foster City, Calif.). Briefly, oocyte vitelline membranes were removed in solution containing 200 mM K aspartate, 20 mM KCl, 1 mM MgCl2, 10 mM EGTA, 10 mM HEPES, pH 7.4. Oocytes were placed in a recording chamber in a solution containing 130 mM NaCl, 2 mM HEPES, 0.02 mM EDTA, 1 mM EGTA, pH 7.6, and borosilicate glass electrodes (1-3 MΩ) were filled with identical solution. Macroscopic currents were filtered at 1 kHz and sampled at 2 kHz using pCLAMP 8.0® software (Axon Instruments). Channels were either fully activated with 2 mM or partially activated with 50 and 100 μM cGMP. […] Glass syringes and Teflon tubing were used to minimize the binding of compounds to surfaces; concentrations passing through the perfusion system were verified by absorbance.

chymotrypsin = biological target: T1, chymotrypsin (Bos taurus, UniProt P00766); experiment: In vitro hydrolysis by chymotrypsin; assay type: in vitro ADME
T1 construct: purchased Worthington Biochemical Co
Description: All enzymatic assays were performed with 50 μM compound in 0.1M phosphate buffer, pH 7.4, at 37° C. with stirring, unless otherwise noted. Butyrylcholinesterase stock solutions from human serum (Sigma, St. Louis, Mo.) were prepared at 100 U/mL in 0.1 M phosphate buffer, pH 7.4, and stored at −20° C. until use. Hydrolysis was monitored on an 8452A diode array spectrophotometer (Hewlett-Packard). Product peak wavelength absorption was immediately monitored upon addition of compound. Absorbances for complete hydrolysis were determined when there were no further detectable changes. […] All hydrolysis assays were performed in triplicate, and final rate constants are expressed as the mean±SD of the three individually determined rate constants. […] Activity of chymotrypsin (bovine, Worthington Biochemical Co., 190 μg/mL) was verified with 90 μM 4-nitrophenyl acetate in 0.1 M HEPES solution, pH 6.5, at 37° C. with stirring. Hydrolysis product was monitored at 404 nm for 10 min. Activity of proteinase K (from Engyodontium album, Sigma, 165 μg/mL) was verified with 16.5 mg/mL bovine serum albumin in 0.1 M phosphate buffer, pH 7.4, at 37° C. Samples were taken at time point increments up to 2 hours when the reaction reached completion. Samples were analyzed with 12% SDS-PAGE, stained with 0.1% Coomassie Blue.

proteinase K = biological target: T2, proteinase K (Parengyodontium album, UniProt P06873); experiment: In vitro hydrolysis by proteinase K; assay type: in vitro ADME, Engyodontium album
T2 construct: purchased Sigma
Description: Hydrolysis products of 4-nitrophenyl acetate and BSA were detected as positive controls.
All enzymatic assays were performed with 50 μM compound in 0.1M phosphate buffer, pH 7.4, at 37° C. with stirring, unless otherwise noted. Butyrylcholinesterase stock solutions from human serum (Sigma, St. Louis, Mo.) were prepared at 100 U/mL in 0.1 M phosphate buffer, pH 7.4, and stored at −20° C. until use. Hydrolysis was monitored on an 8452A diode array spectrophotometer (Hewlett-Packard). Product peak wavelength absorption was immediately monitored upon addition of compound. Absorbances for complete hydrolysis were determined when there were no further detectable changes. […] All hydrolysis assays were performed in triplicate, and final rate constants are expressed as the mean±SD of the three individually determined rate constants. In some experiments with compound 1, samples were taken at the beginning and end of the assay to verify the hydrolysis product and the completion of the reaction by HPLC. These samples were compared to compounds 1 and 3 on a C18 column eluted with 0.1% TFA in water/acetonitrile. Activity of chymotrypsin (bovine, Worthington Biochemical Co., 190 μg/mL) was verified with 90 μM 4-nitrophenyl acetate in 0.1 M HEPES solution, pH 6.5, at 37° C. with stirring. Hydrolysis product was monitored at 404 nm for 10 min. Activity of proteinase K (from Engyodontium album, Sigma, 165 μg/mL) was verified with 16.5 mg/mL bovine serum albumin in 0.1 M phosphate buffer, pH 7.4, at 37° C. Samples were taken at time point increments up to 2 hours when the reaction reached completion. Samples were analyzed with 12% SDS-PAGE, stained with 0.1% Coomassie Blue.

[2] = +50 mV, concentration series of FIG. 4 / FIG. 5, read-out: KD values determined from the fit of the equation
[3] = Table 1, +50 mV, mean±SD, not corrected for ion accumulation, read-out: KD(+50)
[4] = Table 1, −50 mV, mean±SD, not corrected for ion accumulation, read-out: KD(−50)
[5] = −50 mV, concentration series of FIG. 4 / FIG. 5, read-out: KD values determined from the fit of the equation

Sequence of heteromeric rod CNG channels consisting of CNGA1 and CNGB1 subunits (Q00194 whole entry): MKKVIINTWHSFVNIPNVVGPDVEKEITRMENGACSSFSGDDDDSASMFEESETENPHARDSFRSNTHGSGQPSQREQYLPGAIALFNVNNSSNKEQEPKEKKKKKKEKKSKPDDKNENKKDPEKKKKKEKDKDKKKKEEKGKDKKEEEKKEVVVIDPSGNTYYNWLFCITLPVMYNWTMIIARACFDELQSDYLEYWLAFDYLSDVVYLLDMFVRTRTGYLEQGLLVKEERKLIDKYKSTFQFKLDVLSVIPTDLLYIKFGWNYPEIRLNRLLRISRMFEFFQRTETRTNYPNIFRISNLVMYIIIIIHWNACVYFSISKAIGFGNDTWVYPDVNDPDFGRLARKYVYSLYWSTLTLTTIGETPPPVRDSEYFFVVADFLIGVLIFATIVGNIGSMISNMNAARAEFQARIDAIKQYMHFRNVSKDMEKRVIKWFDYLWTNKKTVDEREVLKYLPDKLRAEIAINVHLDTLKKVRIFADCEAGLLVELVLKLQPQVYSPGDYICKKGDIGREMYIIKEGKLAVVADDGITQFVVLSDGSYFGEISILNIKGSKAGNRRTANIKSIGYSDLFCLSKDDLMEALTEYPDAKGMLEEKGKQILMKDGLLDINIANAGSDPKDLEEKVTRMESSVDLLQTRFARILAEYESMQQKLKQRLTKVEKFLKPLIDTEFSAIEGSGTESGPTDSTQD
Sequence of heteromeric rod CNG channels consisting of CNGA1 and CNGB1 subunits (Q28181 whole entry): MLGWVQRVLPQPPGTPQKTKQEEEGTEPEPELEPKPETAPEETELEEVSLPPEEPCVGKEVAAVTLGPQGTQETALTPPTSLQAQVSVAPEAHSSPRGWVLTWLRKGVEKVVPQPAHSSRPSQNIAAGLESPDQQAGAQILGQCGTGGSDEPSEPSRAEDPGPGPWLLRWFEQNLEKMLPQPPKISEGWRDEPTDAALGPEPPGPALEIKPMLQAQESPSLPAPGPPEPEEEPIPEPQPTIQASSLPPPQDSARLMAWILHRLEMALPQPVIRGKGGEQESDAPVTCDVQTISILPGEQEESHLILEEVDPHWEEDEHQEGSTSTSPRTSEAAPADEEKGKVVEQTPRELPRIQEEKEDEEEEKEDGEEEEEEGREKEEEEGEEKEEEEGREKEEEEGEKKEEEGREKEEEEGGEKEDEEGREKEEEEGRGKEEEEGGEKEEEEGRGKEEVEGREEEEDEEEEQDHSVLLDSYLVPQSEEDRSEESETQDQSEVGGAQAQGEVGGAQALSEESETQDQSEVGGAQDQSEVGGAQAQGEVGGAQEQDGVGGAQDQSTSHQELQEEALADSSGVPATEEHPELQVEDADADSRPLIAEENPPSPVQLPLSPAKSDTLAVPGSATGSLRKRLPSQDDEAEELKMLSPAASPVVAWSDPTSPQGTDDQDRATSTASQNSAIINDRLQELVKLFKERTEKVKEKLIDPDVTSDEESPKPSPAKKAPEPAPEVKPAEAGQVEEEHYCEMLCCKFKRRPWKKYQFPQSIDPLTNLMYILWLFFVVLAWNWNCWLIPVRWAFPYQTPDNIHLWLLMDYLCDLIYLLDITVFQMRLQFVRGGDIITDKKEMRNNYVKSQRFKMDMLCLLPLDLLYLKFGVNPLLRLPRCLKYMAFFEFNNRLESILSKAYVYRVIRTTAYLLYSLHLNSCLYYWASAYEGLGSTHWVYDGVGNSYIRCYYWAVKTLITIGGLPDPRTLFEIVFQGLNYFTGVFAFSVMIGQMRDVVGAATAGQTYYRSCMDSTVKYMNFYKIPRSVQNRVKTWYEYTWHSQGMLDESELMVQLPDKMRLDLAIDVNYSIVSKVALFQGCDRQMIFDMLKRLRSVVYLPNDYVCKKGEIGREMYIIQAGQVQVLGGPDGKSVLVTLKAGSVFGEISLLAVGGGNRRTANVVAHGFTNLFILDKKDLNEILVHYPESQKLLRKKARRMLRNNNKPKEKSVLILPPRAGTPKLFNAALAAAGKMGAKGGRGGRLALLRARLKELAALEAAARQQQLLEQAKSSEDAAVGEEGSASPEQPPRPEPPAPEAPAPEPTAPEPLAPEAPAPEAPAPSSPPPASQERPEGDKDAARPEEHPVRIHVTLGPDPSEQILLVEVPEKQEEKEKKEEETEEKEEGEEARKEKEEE
T2 sequence (P06873 106-384): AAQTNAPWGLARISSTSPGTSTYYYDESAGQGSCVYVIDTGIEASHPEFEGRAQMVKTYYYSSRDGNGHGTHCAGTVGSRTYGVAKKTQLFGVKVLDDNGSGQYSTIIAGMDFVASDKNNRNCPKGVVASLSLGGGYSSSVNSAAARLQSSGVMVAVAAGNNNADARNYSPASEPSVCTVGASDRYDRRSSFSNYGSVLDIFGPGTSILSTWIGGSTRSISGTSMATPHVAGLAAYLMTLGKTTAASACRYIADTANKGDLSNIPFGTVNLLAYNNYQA

Structure (SMILES) | voltage dependence of block [1] | Kd [1, 2] [nM] | Kd [1, 3] [nM] | Kd [1, 4] [nM] | Kd ([1]; octyl series table, +50 mV, read-out: KD(+50)) [nM] | Kd ([1]; octyl series table, −50 mV, read-out: KD(−50)) [nM] | Kd [1, 5] [nM] | hydrolysis products with chymotrypsin (chymotrypsin) | hydrolysis products with proteinase K (proteinase K)
CCCCCCCCNc1ccc(C(=O)OCCN(C)C)cc1 [Compound 5, 2-(Dimethylamino)ethyl 4-(Octylamino)benzoate, reference compound] | appreciably less voltage dependent than compound 1, 6, and 8 | 1500 | 1000 ± 600 | 2400 ± 1400 | 800 ± 500 | 1720 ± 1380 | 1800 |  | 
CCCCNc1ccc(C(=S)NCCN(C)C)cc1 [Compound 8, 4-(Butylamino)-N-(2-(dimethylamino)ethyl)benzothioamide] |  | 500 | 600 ± 300 | 3900 ± 1800 |  |  | 3700 | not able to generate any detectable hydrolysis products | not able to generate any detectable hydrolysis products
CCCCCCCCNc1ccc(C(=S)NCCN(C)C)cc1 [Compound 9, 4-(Octylamino)-N-(2-(dimethylamino)ethyl)benzothioamide] | appreciably less voltage dependent than compound 1, 6, and 8 | 1300 | 700 ± 500 |  |  |  | 1800 | not able to generate any detectable hydrolysis products | not able to generate any detectable hydrolysis products
